The values that follow are results of earlier work, collected in US20090311317A1, “MODIFIED RELEASE TOLTERODINE FORMULATIONS” (Capricorn Pharma Inc., priority 2008, published 2009).

Counter-ions that a name gives are not always drawn.

Data set [1] relates to bladder. The note with it: versus oxybutynin.
The subject of data set [2] is muscarinic receptors of the salivary gland. Particulars: versus oxybutynin.

For `Cc1ccc(O)c([C@@H](CCN(C(C)C)C(C)C)c2ccccc2)c1` [tolterodine, (+)-N,N-diisopropyl-3-(2-hydroxy-5-methylphenyl)-3-phenylpropylamine L-hydrogen tartrate], the “potency in the bladder relative to oxybutynin” value in data set [1] was “equipotent with oxybutynin”. The “affinity for muscarinic receptors of the salivary gland relative to oxybutynin” value in data set [2] is reported as “eight times lower”.
